The target in data set [1] is T1, AD brain-derived tau fibrils (Homo sapiens, UniProt P10636). Briefly: Negative stain EM and quantitative EM (qEM) of tau fibrils after compound treatment. It is filed as biochemical. The protocol:
Negatively stained EM Grids were prepared by depositing 6 µl of sample on formvar/carbon-coated copper grids (400 mesh) for 3 min. The sample was rapidly wicked using filter paper without drying the grid and stained with 1% uranyl acetate for 2 min. […] Fibrils were counted from collections of 33 micrographs (in triplicate) for each experimental condition.

Data set [2] deals with crude AD brain extracts (tau seeds) in HEK293T tau biosensor cells (Homo sapiens, UniProt P10636). Briefly: Tau biosensor cell seeding assay, screen with crude AD brain extracts. It is filed as cell-based. The conditions noted are these: for Number of seeded aggregates in tau biosensor cells (normalized to confluence), Fig. 2e: 10 μM inhibitor on cells, seeds pre-incubated 16–18 h at 4 °C, individual replicates (n=3), DMSO control 10734.9/12808.5/11145.3; for Inhibition of seeding in biosensor cells: 10 μM screen. The source says: From the in silico screen, compounds were ranked and 46 were selected for further experimental validation based on the total binding energy of the ligand/fibril complex. The experimental assessment consisted of direct measures of fibril disassembly (Fig. 2d, e and Supplementary Table 3) and assessment of the seeding capability of the products of disassembled AD tau fibrils in a biosensor cell assay. Disaggregating molecules that produce active seeds are undesirable for therapy and are excluded from further study. HEK293T cells expressing CFP- or YFP-fused tau are transduced with exogenous AD tau fibrils. Externally applied AD-tau fibrils then induce the aggregation of the endogenous fluorescent tau, resulting in the formation of FRET-positive intracellular aggregates, visible as bright puncta by fluorescence microscopy (Fig. 2f). Automated image analysis of visible puncta provides an objective quantification of seeded aggregation. […] Although biosensors may be limited in reporting structural characteristics of fibril progeny, they offer exquisitely sensitive measures of tau seeding activity—the ability for fibrils to recruit monomeric protein into fibrillar form, which is thought to be the mechanism for tau spreading in AD.
Sequence of crude AD brain extracts (tau seeds) in HEK293T tau biosensor cells (P10636 623-695 limits assumed): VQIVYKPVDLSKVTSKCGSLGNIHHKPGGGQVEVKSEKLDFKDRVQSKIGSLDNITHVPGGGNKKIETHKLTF
Human autopsy samples were obtained by the Mayo Clinic Brain Bank and UCLA Pathology Department according to HHS regulations from patients consenting to autopsy. Samples were provided to the researchers of this study as anonymized tissues. For purification of paired helical filaments (PHFs) and straight filaments (SFs) from AD brain tissue, extractions were performed according to the previously published protocol without any modifications. […] For biosensor seeding assays with crude AD brain extracts, fresh-frozen tissue from neuropathologically confirmed AD cases was thawed and cut into a 0.2–0.3 g sections. Tissue was manually homogenized in a 15 ml disposable tube in 1 ml of 50 mM Tris, pH 7.4 with 150 mM NaCl, and then aliquoted to PCR tubes and sonicated in a cuphorn bath for 120 min under 30% power at 4 °C in a recirculating ice water bath, according to reference.
HEK293T cell lines stably expressing tau-K18 P301S-eYFP were obtained from Marc Diamond[25] and used without further characterization or authentication. […] Inhibitors were dissolved in DMSO. […] After twenty minutes, 10 µl of fibrils were added to 90 µl of tau biosensor cells. The number of seeded aggregates was determined by imaging the entire well of a 96-well plate in triplicate using a Celigo Image Cytometer (Nexcelom) in the YFP channel. The number of aggregates in a given image was determined using an ImageJ 2.3.0[50] script, which subtracts the background fluorescence from unseeded cells, and then counts the number of aggregates as peaks with fluorescence above the background using the built-in Particle Analyzer. The number of aggregates was normalized to the confluence of each well, and dose-response plots were generated by calculating the average and standard deviations from triplicate measurements.

The nature of the next data set: MTT cytotoxicity assay. It is filed as cell-based. The following applies: mouse, Neuro2a cells, Neuro2a; final small molecule concentration 10 µM; 24 h; vehicle = 100% viable; individual replicates; read-out: MTT cell viability, compound alone, Fig. 3f. On the procedure:
(§1) In all, 90 µL of Neuro2a cells were plated on clear 96 well plates (Falcon 353072) at 6000 cells per well and given 24 h to adhere to the plate. Subsequent treatment consisted of PHF samples that were co-incubated with or without 100 µM of small molecules for 48 h at 37 °C, with 10 µl applied per well for a final small molecule concentration of 10 µM. After another 24-h incubation at 37 °C, 20 µl of Thiazolyl Blue Tetrazolium Bromide MTT dye (Sigma; 5 mg/ml stock in DPBS) was added to each well and further incubated for 3.5 h at 37 °C. The assay was arrested by replacement of all media with 100% DMSO and transferred to a SpectraMax MF reader. Background 700 nm readings were subtracted from the absorbance readings at 570 nm. Cells treated with 100% DMSO were designated as 0% viable and those treated only with vehicle were designated as 100% viable. Other well readings were normalized to these values.
Background: Tetrazolium assays rely on reduction of a dye to a coloured formazan, in cell work by metabolically active cells.

Another data set concerns Neuro2a cells. Briefly: MTT cytotoxicity assay. It is filed as cell-based. The protocol:
as §1

The target of data set [3] is T1, AD brain-derived tau fibrils. Briefly: Western blot of insoluble tau after compound treatment. It is filed as biochemical. The following applies: 72 h at 37 °C. On the procedure:
Proteins were transferred from gel to nitrocellulose membrane using an iBLOT2 system. The membrane was blocked for 1 h in TBST with 5% milk and washed with TBST three times. The membrane was then incubated with primary antibody (anti-tau A0024 (Dako), 1:4000 dilution in 2% milk/TBST solution) for 1 h, washed three times with TBST, incubated with horseradish peroxidase-conjugated secondary antibody (goat anti-mouse IgG H and L (HRP); 1:5000 Dilution in 2% milk/TBST), and washed three times in TBST.
In general terms: In western blotting, separated proteins are transferred to a membrane and probed.

Another data set has as its target Brain-derived tau PHFs (Homo sapiens, UniProt P10636). Briefly: Dot blot analysis of EGCG time course (GT38, AT8). It is filed as biochemical. The conditions noted are these: for GT38 dot blot signal (AD tau aggregates), Supp. Fig. 1 / AT8 dot blot signal (total hyperphosphorylated tau), Supp. Fig. 1: replicates. The protocol:
Samples were spotted onto nitrocellulose membrane, 20 µl were spotted for each condition, spotting 2 µl at a time and allowing to dry in between. The membrane was blocked for 1 h in TBST with 5% milk and washed with TBST three times. The membrane was then incubated with primary antibody (either anti-tau GT38 (obtained from Virginia Lee lab at UPenn) or anti-phospho-tau AT8 (cat # MN1020, lot # UL2906281Z), 1:4000 dilution in 2% milk/TBST solution) for 1 h, washed three times with TBST, incubated with horseradish peroxidase-conjugated secondary antibody (goat anti-mouse IgG H and L (HRP); 1:5000 Dilution in 2% milk/TBST), and washed three times in TBST. Signal was detected with Pierce ECL Plus Western Blotting Substrate (cat # 32132), and the blot was imaged with a Pharos FX Plus Molecular Imager.

In the next data set the target is AD-tau PHF (Homo sapiens, UniProt P10636). Briefly: CryoEM occupancy analysis of EGCG density. It is filed as binding. The conditions noted are these: for Occupancy of density at Site 1 relative to fibril backbone / Occupancy of density at Site 2 relative to fibril backbone / Occupancy of density at Site 3 relative to fibril backbone: map low-pass filtered to 7 Å.
Sequence of AD-tau PHF (P10636 623-697 limits assumed): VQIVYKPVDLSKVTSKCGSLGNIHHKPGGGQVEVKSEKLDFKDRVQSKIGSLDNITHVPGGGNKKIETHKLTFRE

Data set [4] deals with biosensor cells (HEK293T). Briefly: Toxicity to biosensor cells under seeding assay conditions. It is filed as cell-based. The conditions noted are these: under the assayed conditions (10 μM screen). On the procedure: HEK293T cell lines stably expressing tau-K18 P301S-eYFP were obtained from Marc Diamond[25] and used without further characterization or authentication. Cells were maintained in DMEM (Life Technologies, cat. 11965092) supplemented with 10% (vol/vol) FBS (Life Technologies, cat. A3160401), 1% penicillin/streptomycin (Life Technologies, cat. 15140122), and 1% Glutamax (Life Technologies, cat. 35050061) at 37 °C, 5% CO2 in a humidified incubator. […] Inhibitors were dissolved in DMSO. For seeding, inhibitor-treated seeds were sonicated in a cuphorn water bath for 3 min, and then mixed with 1 volume of […] (Life Technologies, cat. 11668027) prepared by diluting 1 µl of Lipofectamine in 19 µl of OptiMEM. After twenty minutes, 10 µl of fibrils were added to 90 µl of tau biosensor cells. The number of seeded aggregates was determined by imaging the entire well of a 96-well plate in triplicate using a Celigo Image Cytometer (Nexcelom) in the YFP channel. The number of aggregates in a given image was determined using an ImageJ 2.3.0[50] script, which subtracts the background fluorescence from unseeded cells, and then counts the number of aggregates as peaks with fluorescence above the background using the built-in Particle Analyzer. […]

The structures appear in SMILES notation. Where “and” joins values, the source holds several entries; their conditions need not be identical. Equal entries are not always repeated.

Two molecules from publication PMC9481533, “Structure-based discovery of small molecules that disaggregate Alzheimer’s disease tissue derived tau fibrils in vitro” (Nature Communications, 2022) can be followed below.

T1 sequence (P10636 623-695 limits assumed): as the sequence (P10636 623-695 limits assumed) above
Sequence of Brain-derived tau PHFs (P10636 623-695 limits assumed): as above

Consider `O=C(O[C@@H]1Cc2c(O)cc(O)cc2O[C@@H]1c1cc(O)c(O)c(O)c1)c1cc(O)c(O)c(O)c1` [EGCG, Epigallocatechin gallate], for which the “Electron microscopy of tau fibrils treated with compound (qualitative)” value in data set [1] (negative stain EM) is recorded as “nearly gone after 24 h of incubation”. Moreover, the “Quantitation of fibril number on EM images (qEM), Fig. 3c” value in data set [1] (relative scale, fibrils alone about 1, individual replicates of 33 micrographs) is 0 and 0.009982. For the same molecule, the “Number of seeded aggregates in tau biosensor cells (normalized to confluence), Fig. 2e” value in data set [2] (listed as EGCG-PBS) was 1.145 and 4.487 and 178.587. The “Inhibition of seeding in biosensor cells” value in data set [2] is recorded as “prevents the formation of any seeds”. Further, the viability at 24 h, 10 µM in “MTT cytotoxicity assay” was found to be 102%. Moreover, the “Neuronal cytotoxicity of compound” value in the data set on Neuro2a cells (Neuro 2a (N2a) cells, MTT) is listed as “no significant cytotoxicity”. In the data set with Neuro2a cells (Neuro2a, final small molecule concentration 10 µM, 24 h, vehicle = 100% viable, individual replicates, 10 µM), the “MTT cell viability, compound alone, Fig. 3f” value was 108.947% and 94.1622%. Further, the “Reduction of insoluble tau by Western blot” value in data set [3] is “substantially reduce the amount of insoluble tau”. Besides, the “Time at which reduction in aggregate level begins (GT38 dot blot)” value at Brain-derived tau PHFs (37 °C) is 1 to 3 h. In addition, the “GT38 dot blot signal (AD tau aggregates), Supp. Fig. 1” value is 0.7905 and 0.6952 and 0.7857 at Brain-derived tau PHFs (EGCG incubation 1 h at 37 °C, relative to 0 h); 0.6381 and 0.5905 and 0.6857 on Brain-derived tau PHFs (EGCG incubation 3 h at 37 °C); 0.3571 and 0.3381 and 0.6238 at Brain-derived tau PHFs (EGCG incubation 6 h at 37 °C); 0.2286 and 0.2714 and 0.4143 on Brain-derived tau PHFs (EGCG incubation 24 h at 37 °C). Moreover, the “AT8 dot blot signal (total hyperphosphorylated tau), Supp. Fig. 1” value at Brain-derived tau PHFs (EGCG incubation 1 h at 37 °C) is 0.7495 and 1.415 and 0.8474; at Brain-derived tau PHFs (EGCG incubation 3 h at 37 °C), 1.189 and 1.169 and 0.7844; on Brain-derived tau PHFs (EGCG incubation 6 h at 37 °C) it was 1.107 and 1.408 and 0.8471; at Brain-derived tau PHFs (EGCG incubation 24 h at 37 °C), 1.122 and 1.203 and 1.059. Moreover, the figures for the “Occupancy of density at Site 1 relative to fibril backbone” value on AD-tau PHF (1-hour EGCG) and on AD-tau PHF (3 hr. EGCG) were 43% and 67%, respectively. Further, the “Occupancy of density at Site 2 relative to fibril backbone” value amounted to 44% on AD-tau PHF (1-hour EGCG) and 56% on AD-tau PHF (3 hr. EGCG). Also, the “Occupancy of density at Site 3 relative to fibril backbone” value on AD-tau PHF (1-hour EGCG) stood at 54%; at AD-tau PHF (3 hr. EGCG) it was 62%. At AD-tau PHF (3-h structure), the “Occupancy of EGCG at Site 1” value was determined as 66%.
Regarding `Oc1cccc(-c2c3nc(c(-c4cccc(O)c4)c4ccc([nH]4)c(-c4cccc(O)c4)c4nc(c(-c5cccc(O)c5)c5ccc2[nH]5)CC4)C=C3)c1` [FDA-A4, Temoporfin], the “Toxicity to biosensor cells” value in data set [4] is reported as “toxic to biosensor cells”. Moreover, in data set [2], the “Number of seeded aggregates in tau biosensor cells (normalized to confluence), Fig. 2e” value was 356.976 and 1174.27 and 1749.15; the “Inhibition of seeding in biosensor cells” value is reported as “effective inhibitor”.

The viability is a read-out of living cells in per cent, often relative to untreated cells.
